Patent US20120083464A1, “NEUROPROTECTIVE PROPERTIES OF 5'-METHYLTHIOADENOSINE” (priority 2009, published 2012)

Experiments:
[1] = tested on: mixed cultures of neurons and astrocytes obtained from the cerebral cortex; experiment: Oxygen-glucose deprivation (simulated ischemia) in neuron-astrocyte co-cultures; assay type: cell-based, Sprague-Dawley rat
From the text: Primary neuron cultures were obtained from the cortical lobes of E18 Sprague-Dawley rat embryos according to previously described procedures (Cheung et al., 1998, Neuropharmacology 37:1419-1429). The cells were resuspended in B27 Neurobasal medium plus 10% FBS and then seeded in 24-well plates at 1-2×10^5 cells per well onto a monolayer of astrocytes which were previously prepared as described earlier (Vallejo-Illarramendi et al., 2005, Glia 50:276-279). One day later, the medium was replaced by B27-supplemented Neurobasal medium and 10% fetal bovine serum, and maintained at 37° C. and 5% CO2. Cultures were used 8-9 days after plating. Cultured neurons and astrocytes were identified using antibodies to microtubule associated protein-2 and glial fibrillary acidic protein, respectively.
Ischemic damage was induced by incubating cell cultures in a hyperbaric chamber for 1 hour in nitrogen-saturated buffer containing NaCl 130 mM, KCl 5.4 mM, CaCl2 0.1323 mM, […], MgCl2 0.8 mM, NaH2PO4 1.18 mM, 10 mM sucrose as a substitute of glucose, and the glyocolytic blocker iodoacetate (20 or 50 μM). After the insult, cells were incubated in normoxia, glucose added and iodoacetate removed for an additional period of 24 hours. […] The results are expressed as the mean±SEM of at least four independent experiments performed in triplicate.

caspase 3 activity = experiment: NMDA-mediated increase in caspase 3 activity in pure neuronal culture; assay type: cell-based, Sprague-Dawley rat; conditions: NMDA 300 μM, MTA 100 to 500 μM
Description: Primary cultures of brain cortical neurons were essentially prepared as described previously (Bruno et al., 2001, Eur. J. Neurosci., 13:1469-1478). The fronto-lateral cortical lobes were dissected out of Sprague-Dawley embryonic day 17 foetuses and were mechanically dissociated in Hanks' balanced solution. The cortical lobes were triturated by aspirating 7-10 times using a Pasteur pipette with a flame-narrowed tip. […]
Cortical neurons or mixed cortical neurons and glia were plated on poly-L-lysine-coated 6-well culture plates and after 7 DIV, cells were treated with vehicle or NMDA (300 μM) for different periods of time. […] Extracts were then centrifuged at 5,000×g for 10 min at 4° C., and protein content was determined by using the BCA protein assay according to the manufacturer instructions. Cell extracts (40 μg of protein) were incubated in reaction buffer (25 mM Hepes, 10% sucrose, 0.1% CHAPS, 10 mM DTT) containing 50 μM fluorescence substrate Z-DEVD-AFC at 37° C. for 1 h. Cleavage of the AFC fluorophore was determined in a spectrofluorometer at excitation wavelength of 400 nm and fluorescence was detected at an emission wavelength of 505 nm. Caspase 3 activity was expressed as units of fluorescence/mg of protein/h (Posadas et al., 2009, Pharm. Res., In press).

[2] = tested on: Corticospinal tract-YFP mice with chronic EAE; experiment: Chronic EAE (model of progressive multiple sclerosis), clinical score and axonal density; assay type: in vivo, mice (C57B6 background)
From the text: Chronic EAE was induced in Corticospinal tract-YFP mice (C57B6 background; see Bareyre et al., Nat Med. 2005 December; 11(12):1355-60) immunized with MOG. The fluorescence labelling of motor axons, allows an accurate quantification of axonal damage during EAE.
1. Align spinal cords of all animals and cut out the following pieces of the spinal cord at the same level in all animals: a) a piece of the cervical spinal cord (about 1 cm in length) starting around at the upper cervical level around C1/2 (this will allow you to determine the number of CST fibers that enter the spinal cord); b) a piece of the lumbar spinal cord (about 1 cm in length) starting around the mid-lumbar level L2/3 (this will allow you to determine the number of fibers that reach the lumbar spinal cord).
5. Mount the tissue and analyze the sections using confocal microscopy—use a high-resolution objectives e.g. a 60× oil objective and take a single image plan covering the entire corticospinal tract.
6. Then simple count the number of dots (=number of fibers)—we usually do this blinded on 3-5 sections and then calculate the average for the CST as the CST—especially in the cervical spinal cord which contains many fibers it might be easier to estimate the total number of cervical CST fibers based on counts of several CST areas with a defined size. […]

RN22 cells [3] = experiment: Copper sulphate stress in RN22 cells, MTT cell viability; assay type: cell-based, rat
Description: (§1) RN22 cells were maintained at 37° C. in DMEM medium supplemented with 10% of fetal bovine serum and penicillin/streptomycine. The assays against stress with copper sulphate were conducted using 24-well plates in DMEM medium without serum. After allowing cell adherence for three days, NGF (100 ng/ml) or MTA was added to different concentrations half an hour before the copper sulphate (150 μM). After twenty-four hours, cell viability was quantified by MTT assay and ROS production was quantified by fluorescence. Assays against stress with hydrogen peroxide were conducted in the same way as the foregoing, using 100 μM hydrogen peroxide as a stress-producing agent.
(§2) We determined the quantity of MTT (Sigma) that is reduced to insoluble formazan. After separating the medium, the water-insoluble formazan is solubilised in DMSO and the dissolved material is measured in a spectrophotometer at 570 nm.

RN22 cells [4] = experiment: Hydrogen peroxide stress in RN22 cells, MTT cell viability; assay type: cell-based, rat; conditions: hydrogen peroxide 100 μM, twenty-four hours; MTA 25 μM-3 mM
Description: as §1, §2

CSC[C@H]1O[C@@H](n2cnc3c(N)ncnc32)[C@H](O)[C@@H]1O [MTA, 5′-methylthioadenosine]
protection from OGD-induced damage compared with APV (50 μM) ([1]; MTA at 10 μM): even more protective than APV | protection from OGD (ischemia)-induced damage ([1]; OGD 1 hour with IAA at 20 or 50 μM, both conditions, assayed 24 hours later): highly protective | effect on NMDA-mediated increase in caspase 3 activity (caspase 3 activity): Lack of effect | clinical symptoms (EAE clinical score) versus placebo ([2]; MTA 96 μMol/Kg i.p. daily from first day with EAE score of 2 or higher): amelioration of the clinical symptoms | axonal density in lumbar and cervical spinal cord versus placebo ([2]; MTA 96 μMol/Kg i.p. daily, chronic phase): significantly higher axonal density | cell viability response (MTT) under copper sulphate stress at high MTA concentrations (RN22 cells [3]; MTA in mM range): lowest response | cell viability (MTT) under copper sulphate stress (RN22 cells [3]; copper sulphate 150 μM, twenty-four hours, reaches NGF control levels at most MTA concentrations): significant neuroprotective effect | cell viability (MTT) under hydrogen peroxide stress (RN22 cells [4]): capable of maintaining cell viability
